In assay [1] the test system is B. subtilis used in a Botokiller water dispersible powder. As to the kind of experiment: Drug resistance test: growth of the bacteria constituting a Botokiller water dispersible powder on YBS medium containing a chemical pesticide. It is filed as cell-based, Bacillus subtilis. Particulars: 37° C., 2 days. The protocol:
(§1) In this example, a test for resistance of Bacillus subtilis strain KS1 to chemical pesticides was performed. First, the YBS medium (one containing yeast extract and meat extract in agar) containing the chemical pesticide of interest was prepared in a petri dish. The concentration (ppm) of the chemical pesticide at this time was the same as a general application concentration. Next, Bacillus subtilis strain KS1 was smeared on the surface of the above-mentioned medium containing the chemical pesticide and incubated at 37° C. for 2 days. As a control area, a test for resistance of Bacillus subtilis isolated from a Botokiller water dispersible powder to chemical pesticides was performed in parallel. In this case, the suspension of the Botokiller water dispersible powder was spread on the YBS medium and the bacteria that appeared after overnight incubation at 37° C. were considered as the bacteria constituting a Botokiller water dispersible powder. In the resistance test, the bacteria constituting a Botokiller water dispersible powder were smeared on the surface of the medium containing a chemical pesticide and incubated at 37° C. for 2 days, as is the case with the above-mentioned Bacillus subtilis strain KS1. […]

The subject of assay [2] is Bacillus subtilis strain KS1. As to the kind of experiment: Drug resistance test: growth of strain KS1 on YBS medium containing a chemical pesticide. The settings on record: 37° C., 2 days. The assay is classed as cell-based. The protocol: as §1

In the case of `S=C([S-])NCCNC(=S)[S-].[Mn+2]` [Maneb], the “Resistance of the bacteria constituting a Botokiller water dispersible powder to the chemical pesticide (in words)” value in assay [1] is “showed no resistance”. Also, the “Resistance of Bacillus subtilis strain KS1 to the chemical pesticide (in words)” value in assay [2] is “showed resistance”.
